Source: the supplement of paper PMC11061612

Legend:
Test in all cases: combination Emax (second highest fraction inhibited in the dose matrix, 72 h); higher = more inhibition; extreme values may be limits of the assay
[1] = tested on: Becker (Low Grade Glioma)
Procedure, shortened: (§1)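 Cell lines grown in DMEM/F12 or RPMI with 10% FBS were plated in 1536-well plates and held 24 hours at 37°C, 5% CO2 before 72 hours of exposure to two-drug dose matrices, with DMSO typically at 0.2%. CellTiter-Glo 2.0 luminescence gave viability, which was converted to inhibition. Vehicle wells were set to 0 and blank wells to 1. Combination Emax is the second-highest inhibition in the matrix, and Bliss excess is the observed combination effect minus the expected EA + EB − EA·EB, where EA and EB are the single-agent effects.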

[2] = tested on: ES-2 (Ovarian Carcinoma)
Procedure, shortened: as §1

[3] = tested on: PC-14 (Lung Adenocarcinoma)
Procedure, shortened: as §1

[4] = tested on: Calu-6 (Non-Small Cell Lung Carcinoma)
Procedure, shortened: as §1

[5] = tested on: CML-T1 (Chronic Myelogenous Leukemia)
Procedure, shortened: as §1

[6] = tested on: RMG-I (Ovarian Carcinoma)
Procedure, shortened: as §1

[7] = tested on: SK-MM-2 (Plasma Cell Myeloma)
Procedure, shortened: as §1

[8] = tested on: NCI-H196 (Small Cell Lung Carcinoma)
Procedure, shortened: as §1

[9] = tested on: AN3-CA (Endometrial Carcinoma)
Procedure, shortened: as §1

[10] = tested on: RT4 (Bladder Carcinoma)
Procedure, shortened: as §1

[11] = tested on: LAMA-84 (Chronic Myelogenous Leukemia)
Procedure, shortened: as §1

[12] = tested on: HuO-3N1 (Osteosarcoma)
Procedure, shortened: as §1

[13] = tested on: JHH-1 (Hepatocellular Carcinoma)
Procedure, shortened: as §1

[14] = tested on: KYM-1 (Rhabdomyosarcoma)
Procedure, shortened: as §1

[15] = tested on: OV-90 (Ovarian Carcinoma)
Procedure, shortened: as §1

[16] = tested on: KYSE-70 (Esophageal Squamous Cell Carcinoma)
Procedure, shortened: as §1

[17] = tested on: NCI-H1155 (Non-Small Cell Lung Carcinoma)
Procedure, shortened: as §1

[18] = tested on: HSC-3 (Oral Cavity Carcinoma)
Procedure, shortened: as §1

[19] = tested on: SJRH30 (Rhabdomyosarcoma)
Procedure, shortened: as §1

[20] = tested on: NCI-H810 (Non-Small Cell Lung Carcinoma)
Procedure, shortened: as §1

SMILES	combination Emax [1]	combination Emax [2]	combination Emax [3]	combination Emax [4]	combination Emax [5]	combination Emax [6]	combination Emax [7]	combination Emax [8]	combination Emax [9]	combination Emax [10]	combination Emax [11]	combination Emax [12]	combination Emax [13]	combination Emax [14]	combination Emax [15]	combination Emax [16]	combination Emax [17]	combination Emax [18]	combination Emax [19]	combination Emax [20]
CN(C)CCCOc1ccc(-c2ccc3ncc4c(c3c2)n(C2CCOCC2)c(=O)n4C)cn1 [AZD0156] + C=CCn1c(=O)c2cnc(Nc3ccc(N4CCN(C)CC4)cc3)nc2n1-c1cccc(C(C)(C)O)n1 [AZD1775] (first compound max 1 µM, partner max 1 µM)	0.177	0.616	0.866	0.722	0.917	0.291	0.705	0.478	0.351	0.314	0.942	0.183	0.463	0.355	0.454	0.538	0.342	0.243	0.809	0.889
CN(C)CCCOc1ccc(-c2ccc3ncc4c(c3c2)n(C2CCOCC2)c(=O)n4C)cn1 [AZD0156] + CCN(CCO)CCCOc1ccc2c(Nc3cc(CC(=O)Nc4cccc(F)c4)[nH]n3)ncnc2c1 [AZD2811] (first compound max 1 µM, 7x7, partner max 1 µM)	0.0601	0.167	0.202	0.328	0.259	0.093	0.248	0.0373	0.27	0.349	0.296	0.15	0.108	0.0599	0.143	0.161	0.377	0.308	0.125	0.542
CN(C)CCCOc1ccc(-c2ccc3ncc4c(c3c2)n(C2CCOCC2)c(=O)n4C)cn1 [AZD0156] + C[C@@H]1COCCN1C2=NC(=NC(=C2)C3(CC3)[S@](=N)(=O)C)C4=C5C=CNC5=NC=C4 [AZD6738] (first compound max 1 µM, 7x7, partner max 10 µM)	0.579	0.808	0.828	0.777	0.927	0.528	0.625	0.292	0.491	0.411	0.97	0.299	0.596	0.786	0.437	0.397	0.748	0.487	0.894	0.762
CN(C)CCCOc1ccc(-c2ccc3ncc4c(c3c2)n(C2CCOCC2)c(=O)n4C)cn1 [AZD0156] + O=C(c1cc(Cc2n[nH]c(=O)c3ccccc23)ccc1F)N1CCN(C(=O)C2CC2)CC1 [Olaparib] (first compound max 3 µM, partner max 3 µM)	0.247	0.448	0.236	0.36	0.688	0.29	0.348	0.145	0.352	0.174	0.472	0.289	0.196	0.583	0.257	0.123	0.452	0.467	0.48	0.306
C=CCn1c(=O)c2cnc(Nc3ccc(N4CCN(C)CC4)cc3)nc2n1-c1cccc(C(C)(C)O)n1 [AZD1775] + C1CN(CCC1(C(=O)N[C@@H](CCO)C2=CC=C(C=C2)Cl)N)C3=NC=NC4=C3C=CN4 [Capivasertib] (first compound max 3 µM, partner max 3 µM)	0.602	0.817	0.859	0.8	0.932	0.47	0.501	0.578	0.905	0.712	0.939	0.633	0.691	0.767	0.587	0.534	0.831	0.773	0.955	0.873
C=CCn1c(=O)c2cnc(Nc3ccc(N4CCN(C)CC4)cc3)nc2n1-c1cccc(C(C)(C)O)n1 [AZD1775] + C[C@@H]1COCCN1C2=NC(=NC(=C2)C3(CC3)[S@](=N)(=O)C)C4=C5C=CNC5=NC=C4 [AZD6738] (first compound max 1 µM, partner max 10 µM)	0.678	0.841	0.918	0.808	0.971	0.686	0.705	0.53	0.714	0.623	0.993	0.5	0.642	0.837	0.526	0.656	0.864	0.63	0.962	0.975
C=CCn1c(=O)c2cnc(Nc3ccc(N4CCN(C)CC4)cc3)nc2n1-c1cccc(C(C)(C)O)n1 [AZD1775] + O=C(c1cc(Cc2n[nH]c(=O)c3ccccc23)ccc1F)N1CCN(C(=O)C2CC2)CC1 [Olaparib] (first compound max 1 µM, partner max 10 µM)	0.216	0.622	0.887	0.708	0.962	0.365	0.705	0.536	0.339	0.283	0.943	0.2	0.328	0.563	0.559	0.655	0.454	0.268	0.777	0.926
CCN(CCO)CCCOc1ccc2c(Nc3cc(CC(=O)Nc4cccc(F)c4)[nH]n3)ncnc2c1 [AZD2811] + C=CCn1c(=O)c2cnc(Nc3ccc(N4CCN(C)CC4)cc3)nc2n1-c1cccc(C(C)(C)O)n1 [AZD1775] (first compound max 1 µM, partner max 1 µM)	0.167	0.627	0.842	0.727	0.915	0.256	0.644	0.468	0.308	0.408	0.917	0.233	0.335	0.401	0.654	0.549	0.45	0.492	0.827	0.886
COc1nnc2ccc(N3CCC(c4ccc(OCCN5CCN(C)C(=O)[C@H]5C)cc4)CC3)nn12 [AZD5153] + CN(CC[C@H](CSC1=CC=CC=C1)NC2=C(C=C(C=C2)S(=O)(=O)NC(=O)C3=CC=C(C=C3)N4CCC(CC4)[C@H](C5=CC=CC=C5C6=CC=C(C=C6)Cl)O)S(=O)(=O)C(F)(F)F)CCO [AZD4320] (first compound max 1 µM, 7x7, partner max 1 µM)		0.745	0.421	0.574				0.276	0.255	0.545		0.466	0.777				0.974	0.712	0.706	
Cc1c2c(nn1C)CSCc1cc(n(C)n1)CSc1cc(c3ccccc3c1)OCCCc1c(C(=O)O)n(C)c3c-2c(Cl)ccc13 [AZD5991] + Cn1cnc2c(F)c(Nc3ccc(Br)cc3Cl)c(C(=O)NOCCO)cc21 [Selumetinib] (first compound max 1 µM, 7x7, partner max 3 µM)	0.274	0.56	0.343	0.635	0.344	0.41	0.356	0.132	0.311	0.352	0.912	0.832	0.663	0.259		0.188	0.363	0.744	0.512	0.322
CC(=O)c1c(C)c2cnc(Nc3ccc(N4CCNCC4)cn3)nc2n(C2CCCC2)c1=O [Palbociclib] + CN(CC[C@H](CSC1=CC=CC=C1)NC2=C(C=C(C=C2)S(=O)(=O)NC(=O)C3=CC=C(C=C3)N4CCC(CC4)[C@H](C5=CC=CC=C5C6=CC=C(C=C6)Cl)O)S(=O)(=O)C(F)(F)F)CCO [AZD4320] (first compound max 10 µM, 7x7, partner max 1 µM)		0.621	0.311	0.623				0.276	0.709	0.383		0.494	0.519				0.994	0.613	0.37	
CCc1c2c(nc3ccc(O)cc13)-c1cc3c(c(=O)n1C2)COC(=O)[C@]3(O)CC [SN-38] + O=C(c1cc(Cc2n[nH]c(=O)c3ccccc23)ccc1F)N1CCN(C(=O)C2CC2)CC1 [Olaparib] (first compound max 0.3 µM, 7x7, partner max 10 µM)	0.818		0.696	0.776	1	0.421	0.89			0.832	0.948	0.688	0.539	0.875	0.553	0.304	0.968	0.847	0.444	0.557
C[C@@H](c1ccc2nccn2c1)n1nnc2ncc(-c3cnn(C)c3)nc21 [Savolitinib] + CN(CC[C@H](CSC1=CC=CC=C1)NC2=C(C=C(C=C2)S(=O)(=O)NC(=O)C3=CC=C(C=C3)N4CCC(CC4)[C@H](C5=CC=CC=C5C6=CC=C(C=C6)Cl)O)S(=O)(=O)C(F)(F)F)CCO [AZD4320] (first compound max 1 µM, 7x7, partner max 1 µM)		0.236	0.173	0.414				0.2	0.217	0.376		0.201	0.356				0.582	0.185	0.265	
